Results on 5 compounds are retold here after patent publication US20090105329A1 (priority 2005, published 2009).

“Also recorded” adds a separate entry of the source. Like-named read-outs stand apart in the source and are kept apart here.

Data set [1] deals with patients with advanced solid malignancies. Particulars: on this schedule; cited from earlier work.
Data set [2] can be described thus: Plasma pharmacokinetics of SAHA and its two major metabolites (LC-MS/MS) in the phase I study. In kind it is in vivo, human. The method, then:
Samples are assayed by the HPLC method (Kelly W K, Richon V M, O'Connor O, et al. Clin. Cancer Res. 2003; 9:3578-88) or by LC/MS assay. […] Quantitation of Paclitaxel and total platinum concentrations is done by validated methodology. […] Compartmental modeling is done with the computer program ADAPT II. Non-compartmental modeling is done with the […] function as implemented by the computer program […]. […] The time that Paclitaxel concentrations remain above 0.05 μM is determined using a limited sampling strategy with the 24-hour sample. […] Methods: Eligible patients were those with advanced solid malignancies who were candidates for combination therapy with Carboplatin and Paclitaxel. […] Carboplatin and Paclitaxel were given on Day 1 of each cycle.

The conditions of data set [3]: oral SAHA with food; cited from earlier work.
The test system of data set [4] is patients with advanced solid malignancies. Briefly: Phase I study of SAHA in combination with Carboplatin and Paclitaxel: dose-limiting and other toxicities. Conditions: in the combination. The data set is classed as in vivo, human. The method, then:
The study is designed to define dose-limiting and non-dose limiting toxicities associated with this combination, and to obtain evidence of anti-tumor activity.
Both Carboplatin and Paclitaxel are administered on Day 1 of each treatment cycle. […] Each treatment cycle lasts for 3 weeks.
Definition of dose-limiting toxicity (DLT): Toxicities must be attributable to the study drug(s) to constitute DLT. […] If baseline value is elevated prior to drug therapy, an increase is not considered a DLT unless there is an elevation by more than two grades, and it is of clinical significance. Management and dose modifications associated with the above adverse events are outlined below.
Dosing delays and dose modifications: No intra-patient dose escalation is used. Chemotherapy doses may be reduced for hematological and non-hematological effects. Dose adjustments are to be made according to the system showing the greatest degree of toxicity. Toxicity is graded using the National Cancer Institute Common Toxicity Criteria (NCI CTC) for adverse events (version 3.0). Treatment may be delayed no more than two weeks to allow recovery from toxicity. Dose adjustments for toxicity are made according to the following guidelines.
Methods: Eligible patients were those with advanced solid malignancies who were candidates for combination therapy with Carboplatin and Paclitaxel. […] Carboplatin and Paclitaxel were given on Day 1 of each cycle.

Data set [5] has as its system carcinogen-induced (N-methylnitrosourea) mammary tumors. Particulars: rats, SAHA in their diet over the 130 days of the study; cited from earlier work.
Setting [6] is: human, plasma, po, oral SAHA, patients, plasma, Example 8, read-out: t1/2 (elimination half life) (converted).

Take `O=C(CCCCCCC(=O)Nc1ccccc1)NO` [SAHA, N-Hydroxy-N′-phenyl octanediamide]: in data set [1], the “RP2D of single agent SAHA” value was 400 mg. Besides, the “effect of Carboplatin and Paclitaxel on SAHA pharmacokinetics” value in data set [2] (Day -4 (SAHA alone) vs Day 1 (with Carboplatin and Paclitaxel)) is on record as “did not alter SAHA pharmacokinetics; also recorded: not altered”. The “SAHA clearance on Day 1 as compared to Day -4” value in data set [2] (Example 9, most recent data) is recorded as “potential decreased clearance”. The half-life in data set [2] (setting [6]) is 1.6 ± 0.5 h. Besides, in data set [2] (human, plasma, po, read-out: Tmax (time to maximum plasma or serum concentration)), the Tmax fell in the range of 0.5 to 2 h. In data set [2] (oral SAHA 200-400 mg, patients), the AUC versus dose entry is reported as “increased with dose”. Further, the absorption entry in data set [2] (oral SAHA, patients) is on record as “rapidly absorbed”. For the same compound, the “CL/F (clearance/bioavailability)” value in data set [2] (oral SAHA, patients, Example 8) amounted to 5.8 ± 1.7 L/min. Moreover, in data set [3], the “bioavailability when taken with food” value is listed as “does not alter the bioavailability”. Also, in data set [4] (PO QD (Days 1-14), 3 week cycles), the “Dose recommended for phase II studies” value turned out to be 400 mg. In data set [5], the “development and continued growth of carcinogen-induced (N-methylnitrosourea) mammary tumors” value is on record as “effective at inhibiting”.
On to `CC(=O)O[C@H]1C(=O)[C@@]2(C)[C@H]([C@H](OC(=O)c3ccccc3)[C@]3(O)C[C@H](OC(=O)[C@H](O)[C@@H](NC(=O)c4ccccc4)c4ccccc4)C(C)=C1C3(C)C)[C@]1(OC(C)=O)CO[C@@H]1C[C@@H]2O` [Paclitaxel, 5-beta, 20-epoxy-1,2-alpha, 4,7-beta, 10-beta, 13-alpha-hexahydroxytax-11-en-9-one 4,10-diacetate 2-benzoate 13-ester with (2R,3S)—N-benzoyl-3-phenylisoserine], for which the “Dose recommended for phase II studies” value in data set [4] (Day 1, 3 week cycles) came to 200 mg/m^2.
For `O=C(O)CCC(=O)Nc1ccccc1` [4-Anilino-4-oxobutanoic acid], the half-life was 4.1 ± 1.3 h in data set [2] (human, plasma, po, Example 9, further results, patients after oral SAHA, read-out: t1/2 of acid metabolite (converted)) and around 6 h in data set [2] (setting [6]). The “Cmax relative to SAHA Cmax” value in data set [2] (metabolite in plasma after oral SAHA, fold greater than SAHA Cmax) is recorded as 1.5-7 fold.
On to `[NH2][Pt]1([NH2])[O]C(=O)C2(CCC2)C(=O)[O]1` [Carboplatin, platinum, diammine [1,1-cyclobutane-dicarboxylato (2-)-0,0′]-, (SP-4-2)], for which, in data set [4] (Day 1, 3 week cycles), the “Dose recommended for phase II studies” value was found to be 6 AUC.
Take `O=C(CCCCCCC(=O)Nc1ccccc1)NO[C@@H]1O[C@H](C(=O)O)[C@@H](O)[C@H](O)[C@H]1O` [SAHA glucuronide]: the “t1/2 (elimination half life)” value in data set [2] (human, in vivo, po) is recorded as “approximately 2 h”.
